Reference: paper doi:10.1101/2022.08.09.503277v2 (biorxiv, 2022)

Target: ECD-AT1G56145 (IGP1) (Arabidopsis thaliana, UniProt F4I3K3)
Experiment: isothermal titration calorimetry
Assay type: binding
Conditions: 20 mM sodium citrate pH 5.0, 150 mM NaCl, 25 °C; single site, N fixed to 1

Kd [nM]	Compound
1190 ± 30	OC[C@H]1O[C@@H](O[C@H]2[C@H](O)[C@@H](O)[C@H](O[C@H]3[C@H](O)[C@@H](O)C(O)O[C@@H]3CO)O[C@@H]2CO)[C@H](O)[C@@H](O)[C@@H]1O (some centres unmarked) [CEL3]
1400 ± 10	OC[C@H]1O[C@@H](O[C@H]2[C@H](O)[C@@H](O)[C@H](O[C@H]3[C@H](O)[C@@H](O)[C@H](O[C@H]4[C@H](O)[C@@H](O)[C@H](O[C@H]5[C@H](O)[C@@H](O)C(O)O[C@@H]5CO)O[C@@H]4CO)O[C@@H]3CO)O[C@@H]2CO)[C@H](O)[C@@H](O)[C@@H]1O (some centres unmarked) [CEL5]
